Measured values published in PubChem BioAssay AID624367 (Broad Institute, 2012).
Calls of active or inactive are those of the source. The rule behind the calls is not given here.

Test: lymphoblastoid cell cytotoxicity, dose response, cytotoxicity control, plate reader, dry powder, set 2 (AID 624367)
Conditions: Lymphoblastoid cell line (LCL) cytotoxicity, plate reader; at 35 µM (top of the series)

| Compound | activity change, negative = cytotoxicity |
| --- | --- |
| Cc1noc(C)c1S(=O)(=O)Nc1ccc2c(c1)C(=O)N([C@H](C)CO)C[C@@H](C)[C@H](CN(C)Cc1ccc(C(F)(F)F)cc1)OCCCC[C@@H](C)O2 | -9.24% (inactive) |
| COc1ccccc1C#Cc1cnc2c(c1)C(=O)N([C@@H](C)CO)C[C@H](C)[C@@H](CN(C)C(=O)c1ccc3c(c1)OCO3)O2 | 16.2% (inactive) |
| N#C[C@H]1[C@@H](c2ccc(-c3cccnc3)cc2)[C@@H](CO)N1C(=O)Nc1ccc(F)cc1 | 3.54% (inactive) |
| CN(C)C(=O)c1ccc(-c2cccc(-c3nc(C(=O)NCc4ccccc4)cc4c3[C@@H](CCO)N([S@](=O)C(C)(C)C)C4)c2)cc1 | -1.5% (inactive) |
| C[C@H](NC(=O)C[C@@H]1C=C[C@H](NC(=O)Cc2ccccn2)[C@@H](CO)O1)c1ccccc1 | 4.27% (inactive) |
| Cc1noc(C)c1S(=O)(=O)Nc1ccc2c(c1)C(=O)N([C@H](C)CO)C[C@H](C)[C@@H](CN(C)Cc1ccc(C(F)(F)F)cc1)OCCCC[C@H](C)O2 | -4.42% (inactive) |
| Cc1noc(C)c1S(=O)(=O)Nc1ccc2c(c1)C(=O)N([C@H](C)CO)C[C@H](C)[C@@H](CN(C)Cc1ccc(C(F)(F)F)cc1)OCCCC[C@@H](C)O2 | -2.6% (inactive) |
| C[C@@H]1CN([C@@H](C)CO)C(=O)c2c(c3ccccc3n2C)-c2ccccc2CO[C@@H]1CN(C)C(=O)Nc1ccc(F)cc1 | -5.86% (inactive) |
| O=C(C[C@H]1CC[C@@H]2[C@H](COC[C@H](O)CN2Cc2ccc(Oc3ccccc3)cc2)O1)N1CCc2ccccc2C1 | -13.9% (inactive) |
| COc1ccccc1CNC(=O)C[C@@H]1C[C@H]2c3cc(NC(=O)c4ccc5c(c4)OCO5)ccc3O[C@H]2[C@H](CO)O1 | -4.54% (inactive) |
| O=C(Cc1ccccn1)NCC[C@H]1CC[C@H](NC(=O)Nc2ccc(Cl)cc2)[C@@H](CO)O1 | 3.54% (inactive) |
| COc1ccccc1C#Cc1ccc2c(c1)O[C@H](CN(C)Cc1cccnc1)[C@H](C)CN([C@@H](C)CO)S2(=O)=O | -1.62% (inactive) |
| Cc1noc(C)c1S(=O)(=O)Nc1ccc2c(c1)C(=O)N([C@@H](C)CO)C[C@H](C)[C@@H](CN(C)Cc1ccc(C(F)(F)F)cc1)OCCCC[C@H](C)O2 | -1.76% (inactive) |
| COc1cccc(C#Cc2ccc([C@@H]3[C@@H](C#N)N(C(=O)c4ccccn4)[C@@H]3CO)cc2)c1 | 7.55% (inactive) |
| CCC(=O)N1Cc2cc(C(=O)Nc3nccs3)nc(-c3cccc(-c4ccccc4OC)c3)c2[C@H]1CCO | -2.48% (inactive) |
| C[C@H]1CN([C@@H](C)CO)C(=O)c2c(c3ccccc3n2C)-c2ccccc2CO[C@@H]1CN(C)C(=O)Nc1ccc(F)cc1 | 1.36% (inactive) |
| O=C(C[C@@H]1CC[C@@H]2[C@H](COC[C@@H](O)CN2Cc2ccc3c(c2)OCO3)O1)Nc1ccc(-c2ccccc2)cc1 | -8.48% (inactive) |
| COc1ccccc1CNC(=O)C[C@H]1C[C@@H]2c3cc(NC(=O)CN(C)C)ccc3O[C@@H]2[C@@H](CO)O1 | 2.15% (inactive) |
| C[C@H](NC(=O)C[C@H]1C=C[C@H](NC(=O)Cc2ccccn2)[C@H](CO)O1)c1ccccc1 | 10.5% (inactive) |
| O=C(Cc1ccccn1)NCC[C@H]1CC[C@@H](NC(=O)Nc2ccc(Cl)cc2)[C@@H](CO)O1 | -2.19% (inactive) |
| C[C@H](NC(=O)C[C@H]1C=C[C@H](NC(=O)Cc2ccccn2)[C@@H](CO)O1)c1ccccc1 | 0.993% (inactive) |
| CC(C)(C)[S@@](=O)N1Cc2cc(C(=O)NCc3ccccc3F)nc(-c3cccc(-c4cccnc4)c3)c2[C@H]1CCO | -3.02% (inactive) |

| Compound | activity change, negative = cytotoxicity |
| --- | --- |
| COc1ccccc1C#Cc1cnc2c(c1)C(=O)N([C@H](C)CO)C[C@H](C)[C@@H](CN(C)C(=O)c1ccc3c(c1)OCO3)O2 | 8.25% (inactive) |
| O=C(C[C@@H]1C[C@H]2c3cc(NS(=O)(=O)c4ccc(F)cc4)ccc3O[C@H]2[C@@H](CO)O1)NC1CCCCC1 | 5.66% (inactive) |
| C[C@@H](NC(=O)C[C@@H]1C=C[C@H](NC(=O)Cc2ccccn2)[C@@H](CO)O1)c1ccccc1 | -4.44% (inactive) |
| C[C@@H]1CN([C@@H](C)CO)C(=O)c2c(c3ccccc3n2C)-c2ccccc2CO[C@H]1CN(C)C(=O)Nc1ccc(F)cc1 | 3.34% (inactive) |
| C[C@H](NC(=O)C[C@@H]1C=C[C@@H](NC(=O)Cc2ccccn2)[C@H](CO)O1)c1ccccc1 | 3.26% (inactive) |
| CC(=O)N(C)C[C@@H]1Oc2cc(C#Cc3ccc(F)cc3)ccc2S(=O)(=O)N([C@H](C)CO)C[C@H]1C | 1.69% (inactive) |
| COc1cccc(-c2cccc(-c3nc(C(=O)NCC(F)(F)F)cc4c3[C@H](CCO)N([S@@](=O)C(C)(C)C)C4)c2)c1 | -12.4% (inactive) |
| COc1ccccc1C#Cc1ccc2c(c1)O[C@H](CN(C)Cc1cccnc1)[C@@H](C)CN([C@@H](C)CO)S2(=O)=O | -6.79% (inactive) |
| Cc1ccc(S(=O)(=O)N(C)C[C@H]2Oc3cc(C#Cc4ccncc4)ccc3S(=O)(=O)N([C@@H](C)CO)C[C@H]2C)cc1 | -6.9% (inactive) |
| Cc1noc(C)c1S(=O)(=O)Nc1ccc2c(c1)C(=O)N([C@@H](C)CO)C[C@@H](C)[C@H](CN(C)Cc1ccc(C(F)(F)F)cc1)OCCCC[C@@H](C)O2 | -6.19% (inactive) |
| C[C@H]1CN([C@@H](C)CO)C(=O)c2c(c3ccccc3n2C)-c2ccccc2CO[C@H]1CN(C)C(=O)Nc1ccc(F)cc1 | 0.119% (inactive) |
| CN(C)c1ccc2c(c1)[C@@H]1C[C@@H](CC(=O)NCc3ccc(Oc4ccccc4)cc3)O[C@H](CO)[C@@H]1O2 | 4.68% (inactive) |
| C[C@@H]1CN([C@H](C)CO)S(=O)(=O)c2ccc(/C=C/c3ccccc3)cc2O[C@H]1CN(C)C(=O)NC1CCCCC1 | -0.754% (inactive) |
| C[C@H](NC(=O)C[C@H]1C=C[C@@H](NC(=O)Cc2ccccn2)[C@@H](CO)O1)c1ccccc1 | 6.04% (inactive) |
| COc1ccccc1C#Cc1ccc2c(c1)O[C@H](CN(C)Cc1cccnc1)[C@H](C)CN([C@H](C)CO)S2(=O)=O | -2.03% (inactive) |
| N#C[C@@H]1[C@H](c2ccc(C#Cc3ccccc3F)cc2)[C@@H](CO)N1C(=O)c1cccnc1 | -5.47% (inactive) |
| C[C@H](CO)N1C[C@H](C)[C@@H](CN(C)C(=O)Nc2ccc(F)cc2)OCc2ccccc2-c2c(n(C)c3ccccc23)C1=O | -2.81% (inactive) |
| C[C@@H](NC(=O)C[C@H]1C=C[C@H](NC(=O)Cc2ccccn2)[C@H](CO)O1)c1ccccc1 | 1.04% (inactive) |
| Cc1ccc(S(=O)(=O)N(C)C[C@H]2Oc3cc(C#Cc4ccncc4)ccc3S(=O)(=O)N([C@@H](C)CO)C[C@@H]2C)cc1 | 8.38% (inactive) |
| Cc1noc(C)c1S(=O)(=O)Nc1ccc2c(c1)C(=O)N([C@H](C)CO)C[C@@H](C)[C@@H](CN(C)Cc1ccc(C(F)(F)F)cc1)OCCCC[C@@H](C)O2 | 1.01% (inactive) |
| O=C(Cc1ccccn1)NCC[C@H]1CC[C@H](NC(=O)Nc2ccc(Cl)cc2)[C@H](CO)O1 | 7.55% (inactive) |
